Activity calls are given as the source filed them. No rule for the calls is given here.
Biological target: Chaperone protein DnaK (Escherichia coli (strain K12)) (UniProt P0A6Y8)
Assay: binders of DnaK substrate-binding domain, biophysical, NMR, chaperone (AID 1033)
Settings: Purified DnaK SBD, NMR ligand binding

Chain of Chaperone protein DnaK (Escherichia coli (strain K12)) (P0A6Y8 whole entry, looked up, the tested form may be a part): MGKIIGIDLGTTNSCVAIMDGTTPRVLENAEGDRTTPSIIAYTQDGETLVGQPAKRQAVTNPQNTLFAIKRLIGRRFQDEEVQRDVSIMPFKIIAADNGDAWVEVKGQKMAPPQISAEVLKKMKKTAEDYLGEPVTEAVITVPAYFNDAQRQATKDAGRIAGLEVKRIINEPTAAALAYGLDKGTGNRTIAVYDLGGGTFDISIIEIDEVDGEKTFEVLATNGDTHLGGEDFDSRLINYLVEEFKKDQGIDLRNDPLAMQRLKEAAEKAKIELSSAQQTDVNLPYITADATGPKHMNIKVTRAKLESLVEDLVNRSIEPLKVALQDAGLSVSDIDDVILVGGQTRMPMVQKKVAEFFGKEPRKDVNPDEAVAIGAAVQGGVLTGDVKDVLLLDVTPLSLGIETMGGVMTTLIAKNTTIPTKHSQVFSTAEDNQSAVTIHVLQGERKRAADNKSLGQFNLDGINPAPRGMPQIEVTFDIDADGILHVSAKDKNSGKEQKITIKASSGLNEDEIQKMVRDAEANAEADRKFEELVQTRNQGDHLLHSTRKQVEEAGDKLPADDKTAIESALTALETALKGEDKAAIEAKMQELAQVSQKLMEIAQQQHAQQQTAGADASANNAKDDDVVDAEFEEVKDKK

SMILES	Kd
O=C(NCc1cccnc1)c1ccccn1	> 4 mM (inactive)
Nc1ccc(OCc2ccccc2)cc1	> 4 mM (inactive)
CC1(C)Cc2cccc(C(=O)O)c2O1	> 4 mM (inactive)
O=C(O)CCC1=C2c3ccccc3CCN2C(=O)CC1	> 4 mM (inactive)
Cc1occc1C(=O)Nc1nccs1	> 4 mM (inactive)
CN(C)S(=O)(=O)c1cccc(N)c1	> 4 mM (inactive)
Cc1cc(C)n2nc(NCc3ccccc3)nc2n1	> 4 mM (inactive)
Cc1cccc(CO)n1	> 4 mM (inactive)
O=P(O)(Cc1ccccc1)c1ccccc1	> 4 mM (inactive)
CC(=O)N(C)Cc1nc2ccccc2n1C	> 4 mM (inactive)
CC(=O)Nc1ccc2c(c1)n(C)c(=O)n2C	> 4 mM (inactive)
CC(=O)Nc1ccc(CN2CCOCC2)cc1	> 4 mM (inactive)
C=C1[C@H]2CC[C@@]3(C)[C@H](c4ccoc4)OC(=O)C[C@]13O[C@H]1C[C@H](O)C(C)(C)[C@H](CC(=O)OC)[C@]12C	> 4 mM (inactive)
O=C1C2CCCCC2C(=O)N1c1ccc(O)cc1 (stereo not given)	> 4 mM (inactive)
NC(=O)c1ccsc1NC(=O)C1=COCCO1	> 4 mM (inactive)
c1cncc(C2CCCCN2)c1 (stereo not given)	> 4 mM (inactive)
CSc1ccn(CCC(=O)O)c(=O)n1	> 4 mM (inactive)
O=C(O)CC(O)c1nc2ccccc2[nH]1 (stereo not given)	> 4 mM (inactive)
O=c1c[n+]([O-])c2ccccc2n1OCc1ccccc1	> 4 mM (inactive)
O=C1NC(=O)C(C(C[N+](=O)[O-])c2ccc(O)cc2)C(=O)N1 (stereo not given)	> 4 mM (inactive)
Clc1ccc(SCCn2cncn2)cc1	> 4 mM (inactive)
O=C(NCc1cccc(Cl)c1)c1cnccn1	> 4 mM (inactive)
CNC(=O)N1CCN(C(=O)NC)CC1	> 4 mM (inactive)
CC(=O)OC1CCC2(C)C3CC(=O)C4(C)C(CC5OC6(CCC(C)CO6)[C@@H](C)C54)C3CC[C@H]2C1 (stereo not given in full)	> 4 mM (inactive)
O=c1[nH]c2c(c(=O)n1C1CCCCC1)CCC2	> 4 mM (inactive)

SMILES	Kd
Cc1nnc(NCCCO)[nH]c1=O	> 4 mM (inactive)
O=C(O)c1cccnc1N1CCCC1	> 4 mM (inactive)
NC(=S)NC1CCS(=O)(=O)C1 (stereo not given)	> 4 mM (inactive)
NC(=O)Cc1nc(-c2ccc(F)cc2)cs1	> 4 mM (inactive)
CN1C(=O)c2ccc(N3CCCC3)cc2C1=O	> 4 mM (inactive)
CCOC(=O)CC1Sc2ccccc2NC1=S (stereo not given)	> 4 mM (inactive)
c1ccc(-c2csc3ncn4nnnc4c23)cc1	> 4 mM (inactive)
O=C1OCCC1Sc1nc2ccccc2c(=O)[nH]1 (stereo not given)	> 4 mM (inactive)
COc1ccc(Cl)cc1-c1n[nH]c(=S)n1C	> 4 mM (inactive)
COC(=O)CSc1nnc(-c2ccc(C(=O)O)cc2)o1	> 4 mM (inactive)
CN(C)S(=O)(=O)N1CCc2ccccc21	> 4 mM (inactive)
Cc1oc(-c2ccccc2)cc1CO	> 4 mM (inactive)
CCn1c(-c2ccccc2)n[nH]c1=S	> 4 mM (inactive)
O=c1sc2ccccc2n1CN1CCOCC1	> 4 mM (inactive)
CC(=O)CC(=O)N1C(O)CC[N+]1(C)C (stereo not given)	> 4 mM (inactive)
Cc1cc(C(=O)Nc2ccon2)cs1	> 4 mM (inactive)
NC(=NCCC[C@H](N)C(=O)O)NC(CCC(=O)O)C(=O)O (stereo not given in full)	> 4 mM (inactive)
COc1ccc(CN2CCOCC2)c(C)c1C	> 4 mM (inactive)
NCc1c[nH]c2ccccc12	> 4 mM (inactive)
COC(=O)Cc1cc(=O)n(-c2nc3ccccc3s2)[nH]1	> 4 mM (inactive)
COc1cc2c(cc1OC)-c1cc3ccc(OC)c(OC)c3c[n+]1CC2	> 4 mM (inactive)
CCC(C)C(NC)C(=O)O (stereo not given)	> 4 mM (inactive)
CCc1cc(=O)[nH]c(SCC(=O)NCCOC)n1	> 4 mM (inactive)
Cc1ccc(S(=O)(=O)CC(=O)N(C)C)cc1	> 4 mM (inactive)
COc1ccc2c(c1)CCCN2C(N)=O	> 4 mM (inactive)

SMILES	Kd
Nc1ccc2nsnc2c1	> 4 mM (inactive)
O=C1CC(N2CCC(O)CC2)C(=O)N1c1ccc(F)cc1 (stereo not given)	> 4 mM (inactive)
CC(=O)Nc1nnc(-c2ccncc2)s1	> 4 mM (inactive)
CCN1CCN(CCCNc2ncnc3nc[nH]c23)CC1	> 4 mM (inactive)
CC1CCN(C(=O)c2ccc3c(c2)OCCO3)CC1	> 4 mM (inactive)
CC(C)[C@@H]1CC[C@@H](C)CC1=O	> 4 mM (inactive)
Oc1ccccc1N1CCCC1	> 4 mM (inactive)
C=CCCCCCCCCCCCC(O)CC(O)COC(C)=O (stereo not given) (tested in a mixture with another compound)	> 4 mM (inactive)
CC(=O)Nc1sccc1C(N)=O	> 4 mM (inactive)
O=C(O)C(CO)c1ccccc1 (stereo not given)	> 4 mM (inactive)
CSc1ccccc1C(=O)N1CCOCC1	> 4 mM (inactive)
O=C(NC(=S)NCCO)c1ccccc1	> 4 mM (inactive)
Cc1ccc(N)nc1	> 4 mM (inactive)
CCNC(CC(=O)Nc1ccc(F)cc1)C(=O)O (stereo not given)	> 4 mM (inactive)
NC(=O)Nc1cccc(C(F)(F)F)c1	> 4 mM (inactive)
O=S1(=O)CCC(NC(=S)Nc2ccc(O)cc2)C1 (stereo not given)	> 4 mM (inactive)
Fc1cccc(Cl)c1CN1CCCNCC1	> 4 mM (inactive)
CC(C)(C)C(=O)N1CCCC1C(=O)O (stereo not given)	> 4 mM (inactive)
c1ccc2[nH]c(-c3cscn3)nc2c1	> 4 mM (inactive)
CCOC(=O)c1csc(C)n1	> 4 mM (inactive)
NC(=O)NCCCC(N)C(=O)O (stereo not given)	> 4 mM (inactive)
CCOc1nc(C)ccc1-c1noc(-c2ccncc2)n1	> 4 mM (inactive)
CCOc1ccc(C)cc1S(=O)(=O)n1ccnc1	> 4 mM (inactive)
CC[C@@]1(O)C[C@H](O)c2c(cc3c(c2O)C(=O)c2c(O)ccc(O)c2C3=O)[C@H]1C(=O)OC	> 4 mM (inactive)
N/N=C1\CCCc2c1no[n+]2[O-]	> 4 mM (inactive)

SMILES	Kd
O=C1NC(=S)NC(=O)C1=Cc1ccncc1	> 4 mM (inactive)
CCN1C(=O)N(CO)C2C1N(C)C(=O)N2C (stereo not given)	> 4 mM (inactive)
COc1ccc(C(N)=O)cc1N	> 4 mM (inactive)
Cc1nn2c(nc1=O)SCC(c1ccccc1)=N2	> 4 mM (inactive)
O=c1c(-c2ccc(O)cc2)coc2cc(O)ccc12	> 4 mM (inactive)
COc1ccc(-c2nc(N)n(C(C)=O)n2)cc1	> 4 mM (inactive)
CC(=O)Nc1cccc(N2CCCC2=O)c1	> 4 mM (inactive)
Nc1ccc(Cc2ccc(N)cc2)cc1	> 4 mM (inactive)
CC1=CCc2c(cc3oc(C)cc(=O)c3c2O)OC1	> 4 mM (inactive)
OCn1nnn(-c2ccccc2)c1=S	> 4 mM (inactive)
CCc1c(C(=O)N2CCOCC2)csc1C	> 4 mM (inactive)
Cc1cc(C)n2nc(SCC(=O)c3ccccc3)nc2n1	> 4 mM (inactive)
O=C(/C=C/c1ccccc1)c1ccc(O)cc1	> 4 mM (inactive)
CC(C)=CCc1c(O)cc(C)oc1=O	> 4 mM (inactive)
O=C(O)c1coc2c1C(=O)CCC2	> 4 mM (inactive)
NC(=O)c1ccc(NC(=O)c2ccco2)cc1	> 4 mM (inactive)
O=C(NC(O)C(=O)c1ccccc1)c1ccco1 (stereo not given)	> 4 mM (inactive)
COc1ccc(-c2nc3nc(C)cc(C)n3n2)cc1	> 4 mM (inactive)
O=C(CN1CCOCC1)Nc1cccc(Br)c1	> 4 mM (inactive)
Cc1nnc2n(c1=O)N=C(c1ccccc1)CS2	> 4 mM (inactive)
CNc1nnc(CSc2nc(C)cc(C)n2)s1	> 4 mM (inactive)
Nc1ncnc2c1ncn2CCOc1ccccc1	> 4 mM (inactive)
Cc1nnc(Nc2ccc(S(N)(=O)=O)cc2)[nH]c1=O	> 4 mM (inactive)
OC(CCl)c1ccc(-n2cncn2)cc1 (stereo not given)	> 4 mM (inactive)
NC1=NC(=O)CC(C(=O)Nc2ccccc2)S1 (stereo not given)	> 4 mM (inactive)

SMILES	Kd
O=C(NCc1cccs1)c1ccc2c(c1)OCCO2	> 4 mM (inactive)
CC(=O)Nc1c(C)n(C)n(-c2ccccc2)c1=O	> 4 mM (inactive)
CC(=O)CNc1cc(CNC(C)=O)c(C)cc1C	> 4 mM (inactive)
Nc1cccc(S(=O)(=O)N2CCCCC2)c1	> 4 mM (inactive)
O=c1/c(=C/c2ccccc2F)sc2ncnn12	> 4 mM (inactive)
CSc1ccc(C2NC(=O)CCC2[N+](=O)[O-])cc1 (stereo not given)	> 4 mM (inactive)
CNS(=O)(=O)c1cc(OC)ccc1OC	> 4 mM (inactive)
O=C1C2C3C=CC(C3)C2C(=O)N1c1ccccn1 (stereo not given)	> 4 mM (inactive)
NC(=O)CSc1ncnc2ccccc12	> 4 mM (inactive)
CC(=O)CC1(O)C(=O)Nc2ccc(Br)cc21 (stereo not given)	> 4 mM (inactive)
CCCCCCCCCCCC1=C(O)C(=O)C=C(O)C1=O	> 4 mM (inactive)
Cc1nnc(NCc2cccnc2)[nH]c1=O	> 4 mM (inactive)
COc1cc(C)c(S(=O)(=O)N2CCN(C)CC2)cc1C	> 4 mM (inactive)
CCc1sc(C(=O)NC)cc1Br	> 4 mM (inactive)
O=C(O)C1CSC(c2cc3ccccc3nc2Cl)N1 (stereo not given)	> 4 mM (inactive)
CCN(CC)S(=O)(=O)c1ccc(F)cc1	> 4 mM (inactive)
CC(=O)C1=C(O)C(=O)NC1c1ccccc1 (stereo not given)	> 4 mM (inactive)
C=CCN1CC[C@]23c4c5ccc(O)c4OC2C(=O)CC[C@@]3(O)[C@H]1C5 (stereo not given in full)	> 4 mM (inactive)
CC(=O)O[C@@H]1CC2C(C)(C)[C@H](O)C=C[C@]2(C)C2CC[C@@]3(C)[C@H](c4ccoc4)OC(=O)C4OC43[C@@]21C (stereo not given in full)	> 4 mM (inactive)
CC(C)(CO)NC(=O)c1ccccc1F	> 4 mM (inactive)
CN1CCN(C(=O)/C=C\C(=O)O)CC1	> 4 mM (inactive)
OCc1ccc2occc2c1	> 4 mM (inactive)
COc1ccc2c(c1)=C(c1sc(N)nc1O)C(=O)N=2	> 4 mM (inactive)
COC1(C)CCC2OC2(C)CCC2C1CC2(C)C (stereo not given)	> 4 mM (inactive)
CC1(C)NC(=O)N(CCOc2ccc3c(c2)CCC3)C1=O	> 4 mM (inactive)
